Data: patent publication US7994172B2, “[1H-pyrazolo[3, 4-D]pyrimidin-4-yl]-piperidine or -piperazine compounds as serine-theoronine kinase modulators (P70s6k, Atk1 and Atk2) for the treatment of immunological, inflammatory and proliferative diseases” (Exelixis, Inc., priority 2004, dated 2011)

Tests used:
Type in all cases: biochemical
[1] = target: T1, human Akt2 kinase (kinase domain residues K146-R480) (Homo sapiens, UniProt P31751); assay: Akt2 kinase assay, Luciferase-Coupled Chemiluminescent Kinase assay (LCCA); conditions: 2 μM ATP, 10 nM Akt2; read-out: Akt-2 inhibition IC50
T1 construct: human Akt2 kinase domain residues K146-R480; made in house
T1 sequence (P31751 146-480): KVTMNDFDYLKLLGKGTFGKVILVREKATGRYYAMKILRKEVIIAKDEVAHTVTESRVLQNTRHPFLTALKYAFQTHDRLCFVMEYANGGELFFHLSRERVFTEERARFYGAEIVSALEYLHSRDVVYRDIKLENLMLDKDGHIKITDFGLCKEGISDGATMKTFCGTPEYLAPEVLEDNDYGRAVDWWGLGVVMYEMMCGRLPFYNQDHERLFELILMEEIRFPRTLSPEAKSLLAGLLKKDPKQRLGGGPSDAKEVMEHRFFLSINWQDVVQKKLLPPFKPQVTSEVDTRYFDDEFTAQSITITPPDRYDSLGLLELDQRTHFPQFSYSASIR
Outline: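 Baculovirus human Akt2 kinase domain (K146-R480, 10 nM) with 5 μM crosstide and 2 μM ATP in Tris pH 7.5 with Mg2+/Mn2+, 2 h at ambient temperature. Remaining ATP was read by luciferase chemiluminescence. IC50 came from a 10-point dose-response fitted to a four-parameter Hill equation.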

[2] = target: T2, human p70S6 kinase (p70S6K, kinase domain residues 1-421, T412E mutation) (Homo sapiens, UniProt P23443, T412E); assay: p70S6 kinase assay, Luciferase-Coupled Chemiluminescent Kinase assay (LCCA); conditions: 5 μM ATP, 12 nM p70S6K; read-out: p70S6K inhibition IC50
T2 construct: human p70S6 kinase domainresidues 1-421, containing a T412E mutation; made in house
T2 sequence (P23443 1-421 T412E): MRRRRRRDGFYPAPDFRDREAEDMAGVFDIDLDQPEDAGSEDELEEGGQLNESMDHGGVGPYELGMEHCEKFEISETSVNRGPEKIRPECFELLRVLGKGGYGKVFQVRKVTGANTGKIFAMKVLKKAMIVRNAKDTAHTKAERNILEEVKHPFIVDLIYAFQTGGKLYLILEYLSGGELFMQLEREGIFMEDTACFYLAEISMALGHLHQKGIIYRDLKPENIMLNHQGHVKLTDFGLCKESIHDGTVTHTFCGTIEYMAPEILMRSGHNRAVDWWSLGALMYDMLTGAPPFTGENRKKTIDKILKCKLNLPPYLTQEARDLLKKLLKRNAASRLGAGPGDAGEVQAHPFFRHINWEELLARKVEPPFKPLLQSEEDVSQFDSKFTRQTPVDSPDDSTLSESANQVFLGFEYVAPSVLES
Outline: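 Baculovirus-expressed kinase domain (12 nM) reacted 2 h at ambient temperature with 5 μM ATP and 5 μM RRRLSSLRA peptide. Buffer was Tris pH 7.5 with MgCl2, MnCl2, DTT and Triton X-100. Remaining ATP was read by luciferase-luciferin chemiluminescence. IC50 came from 10-point dose-response with a four-parameter Hill fit.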

[3] = target: T3, human Akt1 kinase (kinase domain residues R144-A480, activated with PDK1) (Homo sapiens, UniProt P31749); assay: Akt1 kinase assay, Luciferase-Coupled Chemiluminescent Kinase assay (LCCA); conditions: 1 μM ATP, 1.3 nM Akt1; read-out: Akt-1 inhibition IC50
T3 construct: made in house
T3 sequence (P31749 144-480): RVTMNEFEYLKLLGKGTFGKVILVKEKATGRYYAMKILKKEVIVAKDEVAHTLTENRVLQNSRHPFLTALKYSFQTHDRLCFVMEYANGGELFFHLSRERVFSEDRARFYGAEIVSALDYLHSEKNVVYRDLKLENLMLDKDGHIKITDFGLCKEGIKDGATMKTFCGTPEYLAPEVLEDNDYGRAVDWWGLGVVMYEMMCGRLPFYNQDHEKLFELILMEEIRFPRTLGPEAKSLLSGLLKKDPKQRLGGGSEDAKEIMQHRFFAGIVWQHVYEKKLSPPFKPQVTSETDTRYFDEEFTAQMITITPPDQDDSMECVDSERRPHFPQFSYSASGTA
Outline: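 Baculovirus-expressed PDK1-activated Akt1 kinase domain (R144-A480), 1.3 nM, with 5 μM crosstide and 1 μM ATP in Tris pH 7.5 with MgCl2/MnCl2, 3 h at ambient temperature. Remaining ATP read by luciferase-luciferin chemiluminescence; 10-point IC50 from four-parameter fit.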

Measured: IC50

Brc1n[nH]c2ncnc(N3CCN(C4CCCCc5ccccc54)CC3)c12 (stereo not drawn) [Entry 78, 3-bromo-4-[4-(6,7,8,9-tetrahydro-5H-benzocyclohepten-5-yl)piperazin-1-yl]-1H-pyrazolo[3,4-d]pyrimidine]
> 2000 nM: all assays above

Brc1n[nH]c2ncnc(N3CCN(Cc4ccc(OCc5ccccc5)cc4)CC3)c12 [Entry 79, 3-bromo-4-[4-({4-[(phenylmethyl)oxy]phenyl}methyl)piperazin-1-yl]-1H-pyrazolo[3,4-d]pyrimidine]
> 2000 nM: all assays above

CN(C)C(=O)CN1CCN(c2ncnc3[nH]nc(Br)c23)CC1 [Entry 85, 2-[4-(3-bromo-1H-pyrazolo[3,4-d]pyrimidin-4-yl)piperazin-1-yl]-N,N-dimethylacetamide]
> 2000 nM: all assays above
